From patent publication US20120028917A1, “Use Of N-(4-((3-(2-Amino-4-Pyrimidinyl)-2-Pyridinyl)Oxy)Phenyl)-4-(4-Methyl-2-Thienyl)-1-Phthalazinamine In The Treatment Of Antimitotic Agent Resistant Cancer” (Amgen Inc., priority 2009, published 2012)
“And” between values parts separate entries of the source, which are not always exact repeats. Equal values may be shown once. Marks after values point to notes of the source that are not given here.

Legend:
COLO 205 xenograft = experiment: Xenograft tumor growth inhibition (Example 7); type: in vivo, mice; conditions: COLO 205, Colon; oral 15 mg/kg b.i.d. 2 consecutive days per week or 3 mg/kg b.i.d. every day, 3 weeks
Experimental: (§1) The in-vivo effect of AMG 900 on tumor growth was further evaluated in a panel of human xenografts from five different tumor types (breast, colon, lung, pancreatic, and uterine), including three MDR xenograft models. Mice bearing established tumors were orally administered AMG 900 at 15 mg/kg b.i.d. for 2 consecutive days per week for 3 weeks or at 3 mg/kg b.i.d. every day for 3 weeks. The maximum percentage of tumor growth inhibition (TGI) is reported, in Table 7 below, for each xenograft model. The percentage of TGI was calculated as the difference between the change in vehicle-treated control and AMG 900-treated tumor volumes during the study period.

MES-SA xenograft = experiment: Xenograft tumor growth inhibition (Example 7); type: in vivo, mice; conditions: Uterine, oral 15 mg/kg b.i.d. 2 consecutive days per week or 3 mg/kg b.i.d. every day, 3 weeks
Experimental: as §1

HCT-15 (MDR) xenograft = experiment: Xenograft tumor growth inhibition (Example 7); type: in vivo, mice; conditions: Colon, oral 15 mg/kg b.i.d. 2 consecutive days per week or 3 mg/kg b.i.d. every day, 3 weeks
Experimental: as §1

[1] = test system: MES-SA-Dx5 (MDR) xenograft; experiment: Xenograft tumor growth inhibition (Example 7); type: in vivo, mice; conditions: Uterine, oral 15 mg/kg b.i.d. 2 consecutive days per week or 3 mg/kg b.i.d. every day, 3 weeks
Experimental: as §1

NCI-H460 xenograft = experiment: Xenograft tumor growth inhibition (Example 7); type: in vivo, mice; conditions: NCI-H460, Lung; oral 15 mg/kg b.i.d. 2 consecutive days per week or 3 mg/kg b.i.d. every day, 3 weeks
Experimental: as §1

MiaPaCa2 xenograft = experiment: Xenograft tumor growth inhibition (Example 7); type: in vivo, mice; conditions: MiaPaCa2, Pancreas; oral 15 mg/kg b.i.d. 2 consecutive days per week or 3 mg/kg b.i.d. every day, 3 weeks
Experimental: as §1

MDA-MB-231 xenograft [2] = experiment: Xenograft tumor growth inhibition (Example 7); type: in vivo, mice; conditions: MDA-MB-231, Breast; oral 15 mg/kg b.i.d. 2 consecutive days per week or 3 mg/kg b.i.d. every day, 3 weeks
Experimental: as §1

[3] = test system: NCI-H460-PTX (MDR) xenograft; experiment: Xenograft tumor growth inhibition (Example 7); type: in vivo, mice; conditions: Lung, oral 15 mg/kg b.i.d. 2 consecutive days per week or 3 mg/kg b.i.d. every day, 3 weeks
Experimental: as §1

HCT116 xenograft = experiment: Xenograft tumor growth inhibition (Example 7); type: in vivo, mice; conditions: HCT116, Colon; oral 15 mg/kg b.i.d. 2 consecutive days per week or 3 mg/kg b.i.d. every day, 3 weeks
Experimental: Mice were injected subcutaneously with 2×10^6 human HCT 116 colon tumor cells. When tumors were established (approximately 200 mm^3), mice were randomized into experimental treatment groups (n=10) and treated orally with AMG 900 at 1.5, 2.25 or 3 mg/kg everyday or, 3.75, 7.5 or 15 mg/kg intermittently for the duration of the experiment. Mice were provided nutritional supplements on a daily basis. Tumor volumes and body weights were recorded twice per week using caliper and analytical digital scale, respectfully. Tumor data were represented by mean tumor volume +/−SEM. Statistical significance for tumor growth inhibition was determined by repeated measurements ANOVA (RMANOVA) followed by Scheffe post-hoc analysis.
as §1

NCI-H460 = experiment: Cell cycle DNA content assay (flow cytometry); type: cell-based; conditions: Homo sapiens, 24 h; NCI-H460, Lung, Parent line; read-out: EC50 @ 24 hours, ≧4N DNA content
Experimental: (§2) NCI-H460 parental and NCI-H460 taxol-resistant cells were seeded at a density of 500,000 cells/well in a 6-well plate in 2 mL of appropriate complete media. The next day cells were treated with AMG 900 or taxol over a 6-point concentration range with a final DMSO concentration of 0.05% in media. After 24 hours, cells were pulsed with BrdU (1:100 dilution) and harvested. Cells were centrifuged at 1600 rpm for 4 minutes and the supernatant was aspirated. Cells were washed in 1× PBS and fixed in 900 μL of ice cold 90% methanol and stored at −20° C. Fixed cells were centrifuged at 2000 rpm for 4 minutes to remove 90% methanol. Cells were washed with 200 μL of wash buffer and stained with 200 μL of propidium iodide (PI) overnight at 4° C. in the dark. Data was acquired and analyzed by flow cytomety (LSRII). A threshold gate was applied according to +4N (same as ≧4N) DNA content and SubG1 positive populations based on DMSO-treated control and low/high drug-treated groups. The data was represented as a percentage of +4N DNA and SubG1 positive subpopulations. The +4N (same as ≧4N) DNA content or SubG1 cellular EC50 values were calculated using a 4-parameter equation. Lung tumor cell lines were treated with control (DMSO), AMG 900 or taxol over a 6-point dose range for 24 hours. Flow cytometric-based cell cycle analysis was performed to measure the percentage of ≧4N DNA content or SubG1 DNA content positive cells. The dose-response curves for AMG 900 represent the drug concentration plotted against the percentage of ≧4N DNA content positive cells. The dose-response curves for taxol represent the drug concentration plotted against the percentage of SubG1 DNA content positive cells. The EC50 values were calculated by 4-parameter fit model.

NCI-H460-Taxol-r = experiment: Cell cycle DNA content assay (flow cytometry); type: cell-based; conditions: Homo sapiens, 24 h, Lung, Paclitaxel-selected, read-out: EC50 @ 24 hours, ≧4N DNA content
Experimental: as §2

MDA-MB-231 xenograft [4] = experiment: Xenograft tumor growth inhibition (Example 3); type: in vivo, athymic nude mice; conditions: MDA-MB-231, Breast; oral BID, best of intermittent or continuous dose schedule
Experimental: To investigate whether AMG 900-induced suppression of aurora kinase activity inhibits cell proliferation, the antiproliferative efficacy of AMG 900 was evaluated in-vivo in multiple human cancer xenograft models, including breast, colon, leukemia, lung, pancreatic, and uterine cancer models, grown in athymic nude mice. Mice were administered AMG 900 orally at 3.75, 7.5, or 15 mg/kg BID for 2 consecutive days per week or 3 mg/kg BID everyday for the duration of the study beginning when tumors were established. The reagents, solutions, equipment, formulation of AMG 900, tumor volume measurements and calculations were generally as described in Example 4 below.

SMILES: Cc1csc(-c2nnc(Nc3ccc(Oc4ncccc4-c4ccnc(N)n4)cc3)c3ccccc23)c1 [AMG 900, N-(4-((3-(2-amino-4-pyrimidinyl)-2-pyridinyl)oxy)phenyl)-4-(4-methyl-2-thienyl)-1-phthalazinamine]
- Maximum TGI (%) (COLO 205 xenograft): 73* %
- Maximum TGI (%) (MES-SA xenograft): 87** %
- Maximum TGI (%) (HCT-15 (MDR) xenograft): 50* %
- Maximum TGI (%) [1]: 84%
- Maximum TGI (%) (NCI-H460 xenograft): 85** %
- Maximum TGI (%) (MiaPaCa2 xenograft): 60** %
- Maximum TGI (%) (MDA-MB-231 xenograft [2]): 82** %
- Maximum TGI (%) [3]: 66% and 65** %
- Maximum TGI (%) (HCT116 xenograft): 85** %
- EC50 (NCI-H460): 1 nM
- EC50 (NCI-H460-Taxol-r): 1 nM
- % TGI (tumor growth inhibition) (MDA-MB-231 xenograft [4]): 82%
